In patent US5849695A, “Parathyroid hormone analogues useful for treatment of osteoporosis and disorders of calcium meatabolism in mammals” (The Regents of the University of California, priority 1993, dated 1998):
Like-named read-outs stand apart in the source and are kept apart here.

What was measured:
PTH receptor [1] = target: T1, PTH receptor (Canis lupus familiaris, UniProt Q9TU31); format: binding, canine
T1 construct: canine renal plasma membranes; from tissue; host or cells: canine kidney (renal plasma membranes)
T1 sequence (Q9TU31 29-595): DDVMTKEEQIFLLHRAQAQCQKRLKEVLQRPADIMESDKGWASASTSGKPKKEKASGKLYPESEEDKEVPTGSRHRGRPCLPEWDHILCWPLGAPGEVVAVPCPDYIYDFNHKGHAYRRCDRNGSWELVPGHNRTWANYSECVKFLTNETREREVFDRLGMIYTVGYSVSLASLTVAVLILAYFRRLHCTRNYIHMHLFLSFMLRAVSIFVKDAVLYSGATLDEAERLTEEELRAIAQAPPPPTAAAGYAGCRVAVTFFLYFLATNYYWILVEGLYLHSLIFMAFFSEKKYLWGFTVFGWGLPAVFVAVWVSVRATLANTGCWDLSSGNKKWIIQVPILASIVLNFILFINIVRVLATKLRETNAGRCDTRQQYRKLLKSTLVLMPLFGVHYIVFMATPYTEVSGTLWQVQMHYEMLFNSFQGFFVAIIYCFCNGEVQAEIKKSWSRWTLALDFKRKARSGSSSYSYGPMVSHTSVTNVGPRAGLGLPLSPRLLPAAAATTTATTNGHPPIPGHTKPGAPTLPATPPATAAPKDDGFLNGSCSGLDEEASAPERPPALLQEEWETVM
Method: (§1) Receptor binding assays were carried out in canine renal plasma membranes and in UMR 106-H5 rat osteosarcoma cells as previously described in detail (Ref. 14,32), using ^125 I-labeled PTH(1-34)amide as the radioligand. Binding potency (IC50) was quantified as the concentration of unlabeled peptide required for half-maximal displacement of the radioligand. […] Adenylate cyclase activity was assessed in canine renal membranes by the conversion of [α-32p ] ATP to [^32 P] cyclic AMP, essentially as described, except for the addition of 100 micromolar GTP (Ref. 33,34). Adenylate cyclase activity in UMR 106-H5 cells was assessed essentially as described (Ref. 35). In brief, cells were incubated with [3H]adenine 1 micro Ci/ml of serum-free MEM for two hours at 37° C. to label the endogenous ATP pool. Cells were then exposed to 0.4 mM IBMX for 10 min, followed by the appropriate peptide for an additional 10 min at ambient temperature. The cells are then scraped in 20% TCA, and [3H]cyclic AMP is isolated by the column procedure of Salomon et al. (Ref. 36). Potency in the adenylate cyclase assays (Ka) is the concentration of peptide producing half-maximal enzyme activation.

PTH receptor [2] = target: T1, PTH receptor; format: biochemical, canine; conditions: for RENAL MEMBRANES Canine Activity (AC*): maximally effective dose; for antagonism of PTH-stimulated adenylate cyclase: canine renal plasma membranes and UMR 106-H5 cells (FIG. 8)
Method: as §1

PTH receptor [3] = target: T2, PTH receptor (Rattus norvegicus, UniProt P25961); format: binding
T2 construct: endogenous in cells; host or cells: UMR 106-H5 rat osteosarcoma cells
T2 sequence (P25961 27-591): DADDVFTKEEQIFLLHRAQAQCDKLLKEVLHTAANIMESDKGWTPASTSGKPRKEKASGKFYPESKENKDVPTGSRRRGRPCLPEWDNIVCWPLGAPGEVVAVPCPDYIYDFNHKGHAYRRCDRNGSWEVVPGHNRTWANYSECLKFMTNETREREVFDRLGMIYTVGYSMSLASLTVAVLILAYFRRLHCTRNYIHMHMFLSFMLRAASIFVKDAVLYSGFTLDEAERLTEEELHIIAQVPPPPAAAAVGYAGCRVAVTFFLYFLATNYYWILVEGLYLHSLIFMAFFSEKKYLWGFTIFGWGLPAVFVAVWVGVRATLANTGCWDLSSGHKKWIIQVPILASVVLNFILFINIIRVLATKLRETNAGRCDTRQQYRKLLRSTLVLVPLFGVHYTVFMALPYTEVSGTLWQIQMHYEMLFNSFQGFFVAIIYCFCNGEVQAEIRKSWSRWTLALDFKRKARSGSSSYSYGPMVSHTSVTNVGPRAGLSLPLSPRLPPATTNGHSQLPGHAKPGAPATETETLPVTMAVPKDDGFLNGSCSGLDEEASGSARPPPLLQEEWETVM
Method: as §1

PTH receptor [4] = target: T2, PTH receptor; format: cell-based; conditions: for UMR106-H5 CELLS Rat Bone Activity (AC*): maximally effective dose
Method: as §1, with “Assays were conducted using […] cells. These assays were performed as described in Cohen et al. (1991), J. Biological Chem., 266(3), 1997 and in the Experimental section, e.g. Example 11. Receptor” for “Receptor”

[5] = Circular dichroism: alpha-helical content; format: physicochemical; conditions: for % HELIX TFE (30%) / % HELIX TFE (0%): Table 1, CD; for % HELIX TFE (30%): 30% trifluoroethanol; for % HELIX TFE (0%): absence of trifluoroethanol
Method: Far ultraviolet circular dichroism (CD) spectra were obtained in phosphate buffer (ph 7.0) at 25±1° C. in a 1.0 mm cell on an Instruments SA Jobin Yvon circular dichrograph calibrated with (+) 10-camphorsulfonic acid and epiandosterone. Peptides were analyzed at concentrations ranging from 0.1-0.3 mg/ml. The mean molar ellipticity per residue at 222 nm ([⊖]222 nm-, deg cm^2 /dmol) was used to derive estimates of alpha-helicity according to the method of Taylor and Kaiser (ref. 29).

PTH receptor [6] = target: T3, PTH receptor (Homo sapiens, UniProt Q03431); format: cell-based; set-up: In intact rat (UMR-106) and human (SaOS-2) bone cell lines; endogenous in cells; host or cells: SaOS-2 human bone (osteosarcoma) cells
T3 sequence (Q03431 27-593): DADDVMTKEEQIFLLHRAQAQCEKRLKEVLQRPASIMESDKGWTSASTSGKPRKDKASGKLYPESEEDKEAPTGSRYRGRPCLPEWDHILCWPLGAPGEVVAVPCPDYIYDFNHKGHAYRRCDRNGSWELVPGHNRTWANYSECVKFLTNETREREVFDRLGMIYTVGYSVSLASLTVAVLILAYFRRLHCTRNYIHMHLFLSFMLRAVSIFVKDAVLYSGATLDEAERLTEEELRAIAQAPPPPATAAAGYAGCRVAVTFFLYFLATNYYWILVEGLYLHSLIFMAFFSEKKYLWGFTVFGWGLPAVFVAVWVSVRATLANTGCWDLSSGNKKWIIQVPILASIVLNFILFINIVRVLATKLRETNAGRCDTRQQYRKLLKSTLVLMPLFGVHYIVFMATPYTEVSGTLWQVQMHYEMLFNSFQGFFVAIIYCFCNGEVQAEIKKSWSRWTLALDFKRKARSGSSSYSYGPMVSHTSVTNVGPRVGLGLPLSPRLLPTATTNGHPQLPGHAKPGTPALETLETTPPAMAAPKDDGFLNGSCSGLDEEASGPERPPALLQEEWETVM
Text: The renal membrane assay values listed reflect the effect of the polypeptide analogue with kidney tissue receptors. The UMR-106-H5 assay values reflect the effect of the peptide analogue with rat bone tissue receptors. The Sa05-2 assay values reflect the effect of the peptides for human bone tissue receptors.

[7] = Table 1, relative to bPTH(1-34) = 100%
[8] = Table 1, half-maximal enzyme activation, relative to bPTH(1-34) = 100%

RENAL MEMBRANES Canine Potency (B) (PTH receptor [1]; [7]) [%] | RENAL MEMBRANES Canine Potency (AC) (PTH receptor [2]; [8]) [%] | RENAL MEMBRANES Canine Activity (AC*) (PTH receptor [2]; [7]) [%] | UMR106-H5 CELLS Rat Bone Potency (B) (PTH receptor [3]; [7]) [%] | UMR106-H5 CELLS Rat Bone Activity (AC*) (PTH receptor [4]; [7]) [%] | UMR106-H5 CELLS Rat Bone Potency (AC) (PTH receptor [4]; [7]) [%] | % HELIX TFE (30%) [5] [%] | % HELIX TFE (0%) [5] [%] | Compound | further results
55 | 2.5 | 100 | 9 | 100 | 75 | 84 | 35 | [His^3 ]bPTH(1-34) | potency for adenylate cyclase activation compared with renal adenylate cyclase (PTH receptor [4]; UMR-106-H5 cells): increased potency
– | – | – | – | – | – | – | – | [Phe^3 ]bPTH(1-34) | antagonism of PTH-stimulated adenylate cyclase (PTH receptor [2]): partial PTH antagonists
– | – | 100 | – | 100 | – | – | – | CC[C@H](C)[C@H](NC(=O)[C@H](CCC(=O)O)NC(=O)[C@H](CO)NC(=O)[C@@H](NC(=O)[C@H](C)N)C(C)C)C(=O)N[C@@H](CCC(N)=O)C(=O)N[C@@H](Cc1ccccc1)C(=O)N[C@@H](CCSC)C(=O)N[C@@H](Cc1c[nH]cn1)C(=O)N[C@@H](CC(N)=O)C(=O)N[C@@H](CC(C)C)C(=O)NCC(=O)N[C@@H](CCCCN)C(=O)N[C@@H](Cc1c[nH]cn1)C(=O)N[C@@H](CC(C)C)C(=O)N[C@@H](CO)C(=O)N[C@@H](CO)C(=O)N[C@@H](CCSC)C(=O)N[C@@H](CCC(=O)O)C(=O)N[C@@H](CCCNC(=N)N)C(=O)N[C@H](C(=O)N[C@@H](CCC(=O)O)C(=O)N[C@@H](Cc1c[nH]c2ccccc12)C(=O)N[C@@H](CC(C)C)C(=O)N[C@@H](CCCNC(=N)N)C(=O)N[C@@H](CCCCN)C(=O)N[C@@H](CCCCN)C(=O)N[C@@H](CC(C)C)C(=O)N[C@@H](CCC(N)=O)C(=O)N[C@@H](CC(=O)O)C(=O)N[C@H](C(=O)N[C@@H](Cc1c[nH]cn1)C(=O)N[C@@H](CC(N)=O)C(=O)N[C@@H](Cc1ccccc1)C(=O)O)C(C)C)C(C)C [bPTH (1-34), bPTH(1-34), reference compound] | RENAL MEMBRANES Canine Potency (B) (PTH receptor [1]): 100%; RENAL MEMBRANES Canine Potency (AC) (PTH receptor [2]): 100%; UMR106-H5 CELLS Rat Bone Potency (B) (PTH receptor [3]): 100%; UMR106-H5 CELLS Rat Bone Potency (AC) (PTH receptor [4]): 100%
2 | 1.2 | 28 | 0.9 | 100 | 2.5 | 99 | 34 | [Tyr^3 ]bPTH(1-34) | agonist behaviour in the adenylate cyclase assay (PTH receptor [2]; both the bone and kidney systems): partial agonist activity; activity in adenylate cyclase compared with renal adenylate cyclase (PTH receptor [4]; UMR-106-H5 cells): increased activity
– | – | – | – | – | – | – | – | [Glu^3 ]bPTH(1-34) | retention of binding potency / receptor binding activity (PTH receptor [1]; relative to bPTH(1-34), similar in the kidney and bone systems): less than 0.1%; calculated alpha-helical content ([5]; aqueous solvent conditions): 19%
– | – | – | – | – | – | – | – | [Phe^6 ]bPTH(1-34) | binding activity retained, of the activity of bPTH(1-34) (PTH receptor [1]; renal membranes): 1%; antagonism of PTH-stimulated adenylate cyclase (PTH receptor [2]): inhibition; antagonism of PTH-stimulated adenylate cyclase (PTH receptor [2]; listed as [Phe^6 ]PTH(1-34)): partial PTH antagonists; binding activity retained, of the activity of bPTH(1-34) (PTH receptor [3]; osteosarcoma cells): 4%
– | – | – | – | – | – | – | – | [Ala^6 ]bPTH(1-34) | potency in human bone cells versus renal membranes (PTH receptor [6]; human bone cells and renal membranes): equipotent
14 | 1.5 | 78 | 3.5 | 95 | 14 | 81 | 29 | [Lys^3 ]bPTH(1-34) | bioactivity in bone cell assays versus kidney (PTH receptor [4]; both bone cell assays): enhanced bioactivity; SAOS2 CELLS Human Bone Activity (AC) (PTH receptor [6]; [7]): 100%; SAOS2 CELLS Human Bone Potency (AC) (PTH receptor [6]; [7]): 20%
